ChEMBL document CHEMBL3885881, “DrugMatrix”

Organism: Rattus norvegicus
Test: DrugMatrix - Regimen: Daily Repeat
Format: toxicity, organism-based, Sprague-Dawley
Design: regimen Daily Repeat, gender Male, age 6-8 weeks
Details: in vivo, po, route oral GAVAGE, vehicle .5 % CMC; for ABSOLUTE BASOPHIL / ABSOLUTE EOSINOPHIL / ABSOLUTE LYMPHOCYTE / ABSOLUTE MONOCYTE / ABSOLUTE SEGMENTED NEUTROPHIL / BASOPHIL / EOSINOPHIL / ERYTHROCYTE COUNT / HEMATOCRIT / HEMOGLOBIN / LEUKOCYTE COUNT / LYMPHOCYTE / MEAN CORPUSCULAR HEMOGLOBIN / MEAN CORPUSCULAR HEMOGLOBIN CONCENTRATION / MEAN CORPUSCULAR VOLUME / MONOCYTE / NEUTROPHIL / NUCLEATED RED BLOOD CELLS / PLATELET COUNT: tissue Blood; for ALANINE AMINOTRANSFERASE / ALBUMIN / ALKALINE PHOSPHATASE / ASPARTATE AMINOTRANSFERASE / BLOOD UREA NITROGEN / CARBON DIOXIDE / CHLORIDE / CHOLESTEROL / CREATINE PHOSPHOKINASE / CREATININE / GLUCOSE / LACTATE DEHYDROGENASE / LIPASE / PHOSPHORUS / POTASSIUM / SODIUM / TOTAL BILIRUBIN / TOTAL PROTEIN / URIC ACID: tissue Plasma
[1] = 10 mg/kg, 72 h, dose level Low, time 3 day
[2] = 10 mg/kg, 120 h, dose level Low, time 5 day
[3] = 1500 mg/kg, 72 h, dose level High, time 3 day
[4] = 1500 mg/kg, 120 h, dose level High, time 5 day

Structure (SMILES): CCOC(=O)[C@H](CCc1ccccc1)N[C@@H](C)C(=O)N1CCC[C@H]1C(=O)O
- ABSOLUTE BASOPHIL [1]: 0 CELLS/uL
- ABSOLUTE EOSINOPHIL [1]: 88 CELLS/uL
- ABSOLUTE LYMPHOCYTE [1]: 12760.67 CELLS/uL
- ABSOLUTE MONOCYTE [1]: 130 CELLS/uL
- ABSOLUTE SEGMENTED NEUTROPHIL [1]: 688 CELLS/uL
- BASOPHIL [1]: 0%
- EOSINOPHIL [1]: 0.67%
- ERYTHROCYTE COUNT [1]: 5.43 x10E6/uL
- HEMATOCRIT [1]: 32.83%
- HEMOGLOBIN [1]: 13.1 G/DL
- LEUKOCYTE COUNT [1]: 13.67 x10E3/uL
- LYMPHOCYTE [1]: 93.33%
- MEAN CORPUSCULAR HEMOGLOBIN [1]: 24.13 pg
- MEAN CORPUSCULAR HEMOGLOBIN CONCENTRATION [1]: 39.87 G/DL
- MEAN CORPUSCULAR VOLUME [1]: 60.53 fL
- MONOCYTE [1]: 1%
- NEUTROPHIL [1]: 5%
- NUCLEATED RED BLOOD CELLS [1]: 0.33 /100WBC
- PLATELET COUNT [1]: 1331.67 x10E3/uL
- ALANINE AMINOTRANSFERASE [1]: 46 u/L
- ALBUMIN [1]: 4.5 G/DL
- ALKALINE PHOSPHATASE [1]: 398 u/L
- ASPARTATE AMINOTRANSFERASE [1]: 79 u/L
- BLOOD UREA NITROGEN [1]: 17.67 mg/dL
- CARBON DIOXIDE [1]: 28.33 mmol/L
- CHLORIDE [1]: 98 MEQ/L
- CHOLESTEROL [1]: 60.33 mg/dL
- CREATINE PHOSPHOKINASE [1]: 181.67 u/L
- CREATININE [1]: 0.17 mg/dL
- GLUCOSE [1]: 149.33 mg/dL
- LACTATE DEHYDROGENASE [1]: 115.33 u/L
- LIPASE [1]: 9.67 u/L
- PHOSPHORUS [1]: 11.47 mg/dL
- POTASSIUM [1]: 6.99 MEQ/L
- SODIUM [1]: 142.87 MEQ/L
- TOTAL BILIRUBIN [1]: 0.23 mg/dL
- TOTAL PROTEIN [1]: 6.13 G/DL
- URIC ACID [1]: 1.37 mg/dL
- ABSOLUTE BASOPHIL [2]: 0 CELLS/uL
- ABSOLUTE EOSINOPHIL [2]: 28.33 CELLS/uL
- ABSOLUTE LYMPHOCYTE [2]: 10805 CELLS/uL
- ABSOLUTE MONOCYTE [2]: 28.33 CELLS/uL
- ABSOLUTE SEGMENTED NEUTROPHIL [2]: 738.33 CELLS/uL
- BASOPHIL [2]: 0%
- EOSINOPHIL [2]: 0.33%
- ERYTHROCYTE COUNT [2]: 5.56 x10E6/uL
- HEMATOCRIT [2]: 34.6%
- HEMOGLOBIN [2]: 13.37 G/DL
- LEUKOCYTE COUNT [2]: 11.6 x10E3/uL
- LYMPHOCYTE [2]: 93%
- MEAN CORPUSCULAR HEMOGLOBIN [2]: 24.03 pg
- MEAN CORPUSCULAR HEMOGLOBIN CONCENTRATION [2]: 38.63 G/DL
- MEAN CORPUSCULAR VOLUME [2]: 62.23 fL
- MONOCYTE [2]: 0.33%
- NEUTROPHIL [2]: 6.33%
- NUCLEATED RED BLOOD CELLS [2]: 0 /100WBC
- PLATELET COUNT [2]: 1173.33 x10E3/uL
- ALANINE AMINOTRANSFERASE [2]: 49.33 u/L
- ALBUMIN [2]: 4.27 G/DL
- ALKALINE PHOSPHATASE [2]: 405.67 u/L
- ASPARTATE AMINOTRANSFERASE [2]: 79.33 u/L
- BLOOD UREA NITROGEN [2]: 17.33 mg/dL
- CARBON DIOXIDE [2]: 26.33 mmol/L
- CHLORIDE [2]: 102.33 MEQ/L
- CHOLESTEROL [2]: 51.67 mg/dL
- CREATINE PHOSPHOKINASE [2]: 399 u/L
- CREATININE [2]: 0.17 mg/dL
- GLUCOSE [2]: 175 mg/dL
- LACTATE DEHYDROGENASE [2]: 121.67 u/L
- LIPASE [2]: 9 u/L
- PHOSPHORUS [2]: 11.1 mg/dL
- POTASSIUM [2]: 6.79 MEQ/L
- SODIUM [2]: 142.87 MEQ/L
- TOTAL BILIRUBIN [2]: 0.23 mg/dL
- TOTAL PROTEIN [2]: 6.07 G/DL
- URIC ACID [2]: 1.2 mg/dL
- ABSOLUTE BASOPHIL [3]: 0 CELLS/uL
- ABSOLUTE EOSINOPHIL [3]: 63.67 CELLS/uL
- ABSOLUTE LYMPHOCYTE [3]: 17047.67 CELLS/uL
- ABSOLUTE MONOCYTE [3]: 127.33 CELLS/uL
- ABSOLUTE SEGMENTED NEUTROPHIL [3]: 1494.67 CELLS/uL
- BASOPHIL [3]: 0%
- EOSINOPHIL [3]: 0.33%
- ERYTHROCYTE COUNT [3]: 5.46 x10E6/uL
- HEMATOCRIT [3]: 34.33%
- HEMOGLOBIN [3]: 13.63 G/DL
- LEUKOCYTE COUNT [3]: 18.73 x10E3/uL
- LYMPHOCYTE [3]: 91%
- MEAN CORPUSCULAR HEMOGLOBIN [3]: 24.93 pg
- MEAN CORPUSCULAR HEMOGLOBIN CONCENTRATION [3]: 39.7 G/DL
- MEAN CORPUSCULAR VOLUME [3]: 62.93 fL
- MONOCYTE [3]: 0.67%
- NEUTROPHIL [3]: 8%
- NUCLEATED RED BLOOD CELLS [3]: 1 /100WBC
- PLATELET COUNT [3]: 1237.33 x10E3/uL
- ALANINE AMINOTRANSFERASE [3]: 41.33 u/L
- ALBUMIN [3]: 4.27 G/DL
- ALKALINE PHOSPHATASE [3]: 390.33 u/L
- ASPARTATE AMINOTRANSFERASE [3]: 57.33 u/L
- BLOOD UREA NITROGEN [3]: 34.67 mg/dL
- CARBON DIOXIDE [3]: 32.33 mmol/L
- CHLORIDE [3]: 101.67 MEQ/L
- CHOLESTEROL [3]: 58.33 mg/dL
- CREATINE PHOSPHOKINASE [3]: 191.33 u/L
- CREATININE [3]: 0.28 mg/dL
- GLUCOSE [3]: 143 mg/dL
- LACTATE DEHYDROGENASE [3]: 90.33 u/L
- LIPASE [3]: 9 u/L
- PHOSPHORUS [3]: 12.8 mg/dL
- POTASSIUM [3]: 8.04 MEQ/L
- SODIUM [3]: 142.4 MEQ/L
- TOTAL BILIRUBIN [3]: 0.27 mg/dL
- TOTAL PROTEIN [3]: 6 G/DL
- URIC ACID [3]: 1.53 mg/dL
- ABSOLUTE BASOPHIL [4]: 0 CELLS/uL
- ABSOLUTE EOSINOPHIL [4]: 0 CELLS/uL
- ABSOLUTE LYMPHOCYTE [4]: 15341.33 CELLS/uL
- ABSOLUTE MONOCYTE [4]: 266 CELLS/uL
- ABSOLUTE SEGMENTED NEUTROPHIL [4]: 992.67 CELLS/uL
- BASOPHIL [4]: 0%
- EOSINOPHIL [4]: 0%
- ERYTHROCYTE COUNT [4]: 6.24 x10E6/uL
- HEMATOCRIT [4]: 36.97%
- HEMOGLOBIN [4]: 15.13 G/DL
- LEUKOCYTE COUNT [4]: 16.6 x10E3/uL
- LYMPHOCYTE [4]: 92.33%
- MEAN CORPUSCULAR HEMOGLOBIN [4]: 24.23 pg
- MEAN CORPUSCULAR HEMOGLOBIN CONCENTRATION [4]: 40.93 G/DL
- MEAN CORPUSCULAR VOLUME [4]: 59.27 fL
- MONOCYTE [4]: 1.67%
- NEUTROPHIL [4]: 6%
- NUCLEATED RED BLOOD CELLS [4]: 0.33 /100WBC
- PLATELET COUNT [4]: 1399.33 x10E3/uL
- ALANINE AMINOTRANSFERASE [4]: 39.33 u/L
- ALBUMIN [4]: 4.47 G/DL
- ALKALINE PHOSPHATASE [4]: 328.67 u/L
- ASPARTATE AMINOTRANSFERASE [4]: 73 u/L
- BLOOD UREA NITROGEN [4]: 41 mg/dL
- CARBON DIOXIDE [4]: 25.33 mmol/L
- CHLORIDE [4]: 101.67 MEQ/L
- CHOLESTEROL [4]: 48.67 mg/dL
- CREATINE PHOSPHOKINASE [4]: 295.67 u/L
- CREATININE [4]: 0.37 mg/dL
- GLUCOSE [4]: 149 mg/dL
- LACTATE DEHYDROGENASE [4]: 268.33 u/L
- LIPASE [4]: 9 u/L
- PHOSPHORUS [4]: 10.67 mg/dL
- POTASSIUM [4]: 9.54 MEQ/L
- SODIUM [4]: 140.13 MEQ/L
- TOTAL BILIRUBIN [4]: 0.13 mg/dL
- URIC ACID [4]: 1.4 mg/dL
